Assay results as given in US7361665B2, “Inhibitors of c-Jun N-terminal kinases (JNK) and other protein kinases” (Vertex Pharmaceuticals Incorporated, priority 2002, dated 2008).

Target: T1, JNK3 (Homo sapiens, UniProt P53779)
T1 construct: One such construct encodes amino acid residues Ser40-Glu402 of JNK3α1 and is preceded by Met and Gly residues; Met-Gly dipeptide (initiation Met plus Gly added for the NcoI site) (N); made in house; host or cells: E. coli BL21 (DE3)
Assay: JNK inhibition assay (spectrophotometric coupled-enzyme assay)
Format: biochemical
Settings: activated JNK3 10 nM, 10 μM ATP, 30° C.; read-out: JNK3 Activity (Ki rating)
From the text: A BLAST search of the EST database using the published JNK3α1 cDNA as a query identified an EST clone (#632588) that contained the entire coding sequence for human JNK3α1. Polymerase chain reactions (PCR) using pfu polymerase (Strategene) were used to introduce restriction sites into the cDNA for cloning into the pET-15B expression vector at the NcoI and BamHI sites. The protein was expressed in E. coli. Due to the poor solubility of the expressed full-length protein (Met 1-Gln 422), an N-terminally truncated protein starting at Ser residue at position 40 (Ser 40) was produced. This truncation corresponds to Ser 2 of JNK1 and JNK2 proteins, and is preceded by a methionine (initiation) and a glycine residue. The glycine residue was added in order to introduce an NcoI site for cloning into the expression vector. In addition, systematic C-terminal truncations were performed by PCR to identify a construct that give rise to diffraction-quality crystals. One such construct encodes amino acid residues Ser40-Glu402 of JNK3α1 and is preceded by Met and Gly residues.
Five mg of JNK3 was diluted to 0.5 mg/ml in 50 mM HEPES buffer, pH 7.5, containing 100 mM NaCl, 5 mM DTT, 20 mM MgCl2 and 1 mM ATP. GST-MKK7(DD) was added at a molar ratio of 1:2.5 GST-MKK7:JNK3. After incubation for 30 minutes at 25° C., the reaction mixture was concentrated 5-fold by ultrafiltration in a Centriprep-30 (Amicon, Beverly, Mass.), diluted to 10 ml and an additional 1 mM ATP added. This procedure was repeated three times to remove ADP and replenish ATP. The final addition of ATP was 5 mM and the mixture incubated overnight at 4° C.
The activated JNK3/GST-MKK7(DD) reaction mixture was exchanged into 50 mM HEPES buffer, pH 7.5, containing 5 mM DTT and 5% glycerol (w/v) by dialysis or ultrafiltration. The reaction mixture was adjusted to 1.1 M potassium phosphate, pH 7.5, and purified by hydrophobic interaction chromatography (at 25° C.) using a Rainin Hydropore column. […] Activated JNK3 (i.e. doubly phosphorylated JNK3) was stored at −70° C. at 0.25-1 mg/ml.
Compounds were assayed for the inhibition of JNK3 by a spectrophotometric coupled-enzyme assay. In this assay, a fixed concentration of activated JNK3 (10 nM) was incubated with various concentrations of a potential inhibitor dissolved in DMSO for 10 minutes at 30° C. in a buffer containing 0.1 M HEPES buffer, pH 7.5, containing 10 mM MgCl2, 2.5 mM phosphoenolpyruvate, 200 μM NADH, 150 μg/mL pyruvate kinase, 50 μg/mL lactate dehydrogenase, and 200 μM EGF receptor peptide. The EGF receptor peptide has the sequence […] (SEQ ID NO: 3), and is a phosphoryl acceptor in the JNK3-catalyzed kinase reaction. The reaction was initiated by the addition of 10 μM ATP and the assay plate is inserted into the spectrophotometer's assay plate compartment that was maintained at 30° C. The decrease of absorbance at 340 nm was monitored as a function of time. The rate data as a function of inhibitor concentration was fitted to competitive inhibition kinetic model to determine the Ki.
The compound numbers correspond to the compound numbers in Tables 1-3.

T1 sequence (P53779 40-402): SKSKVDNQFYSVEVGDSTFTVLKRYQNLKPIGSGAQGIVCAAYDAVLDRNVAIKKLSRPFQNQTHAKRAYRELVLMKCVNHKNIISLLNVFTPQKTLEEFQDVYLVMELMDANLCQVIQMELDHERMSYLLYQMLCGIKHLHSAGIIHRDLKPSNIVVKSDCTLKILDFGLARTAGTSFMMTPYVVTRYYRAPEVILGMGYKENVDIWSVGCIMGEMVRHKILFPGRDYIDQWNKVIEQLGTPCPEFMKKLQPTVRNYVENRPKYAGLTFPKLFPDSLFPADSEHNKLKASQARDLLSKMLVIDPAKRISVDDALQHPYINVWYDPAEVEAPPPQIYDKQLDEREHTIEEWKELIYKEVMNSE

Cc1nc(-c2cccs2)sc1-c1ccnc(Nc2ccc(S(N)(=O)=O)cc2)n1 [IIc-22]
Ki: < 100 nM
